Article PMC6193035, “Novel small molecules affecting cell membrane as potential therapeutics for avian pathogenic Escherichia coli” (Scientific Reports, 2018)
Converted amounts (≈) assume the structure as drawn.

Tests used:
APEC O18 = experiment: MIC and MBC determination in M63 media; type: cell-based; conditions: Escherichia coli
APEC O1-63 = experiment: MIC and MBC determination in M63 media; type: cell-based; conditions: Escherichia coli; APEC O1-63, M63 media
APEC O115 = experiment: MIC and MBC determination in M63 media; type: cell-based; conditions: Escherichia coli
APEC O78 [1] = experiment: Bacterial cytological profiling by confocal microscopy; type: cell-based, Escherichia coli; conditions: 2X MBC, 2 h
Protocol: Confocal microscopy was used for bacterial cytological profiling (BCP) to identify the cellular pathways targeted by SMs as described previously. […] After incubation, treated cultures were centrifuged, washed, and resuspended in 100 µL PBS. FM4-64 (#T13320 Molecular Probes/Invitrogen) (1 µg/mL) and SYTO-9 (#S34854 Molecular Probes/Invitrogen) (5 µM) were added to the bacterial cultures and incubated for 45 mins at room temperature with shaking at 150 rpm. Cultures were then centrifuged, washed, and resuspended in PBS to 1/10th volume of the original cultures.

APEC O15 = experiment: MIC and MBC determination in M63 media; type: cell-based; conditions: Escherichia coli
APEC O78 [2] = experiment: Primary screening, growth inhibition of APEC O78; type: cell-based, Escherichia coli; conditions: 100 µM SM; no APEC recovered on LB agar subculture
Protocol: To identify the APEC growth inhibitors, SM library was screened against APEC O78 which is one of the most frequently isolated APEC serotypes from avian colibacillosis cases. One microlitre SMs (final concentration of 100 µM) were added using a slotted pin tool (V and P Scientific, San Diego, CA, USA) to the wells of the 96-well plate containing 100 µL of overnight grown 0.05 OD600 (7 × 10^7 CFU/mL) adjusted APEC culture. Controls (four replicates/plate) containing 1 µL of 100% DMSO (final concentration of 1%), 1 µL chloramphenicol (CHL, #C0378 Sigma-Aldrich) (20 µg/mL), 1 µL kanamycin (KAN, #60615 Sigma-Aldrich) (50 µg/mL), and 100 µL of M63 media were included. To determine the effect of DMSO on APEC growth, antimicrobial activity of DMSO was determined at different concentrations (1% to 32%) in a separate experiment. Plate was then incubated at 37 °C for 12 h in Sunrise - Absorbance microplate reader (Tecan Group Ltd. San Jose, CA) with kinetic OD600 measurement every 30 mins. The quality of screening was assessed by calculating the Z′-score as described previously. The growth inhibition of APEC was calculated by using the formula as previously described[13],[14]. The SMs inhibiting at least 80% of the APEC growth were selected as primary hits. […]

[3] = tested on: STEC O157 and O26 strains; experiment: Activity against STEC strains at 100 µM in M63 media; type: cell-based, Escherichia coli
APEC O8 = experiment: MIC and MBC determination in M63 media; type: cell-based; conditions: Escherichia coli
APEC O2-211 = experiment: MIC and MBC determination in M63 media; type: cell-based; conditions: Escherichia coli; APEC O2-211, M63 media
APEC O2 = experiment: MIC and MBC determination in M63 media; type: cell-based; conditions: Escherichia coli
[4] = tested on: biofilm embedded APEC O78; experiment: MBEC High-throughput (HTP) assay; type: cell-based, Escherichia coli; conditions: for MBEC as multiple of MIC (superscript): 18 h challenge in M63 media; for MBEC as multiple of MIC: tested 0.5X to 8X MIC
Protocol: The effect of cidal SMs against biofilm embedded APEC was determined using MBEC High-throughput (HTP) assay (Innovotech Inc., AB, Canada)[22]. Briefly, 150 μL of 0.05 OD600 adjusted APEC O78 culture was aliquoted into each well of the MBEC device containing polystyrene pegs and incubated at 37 °C for 36 h in LB media under stationary condition. […] The plate was incubated in the dark for 18 h at 37 °C with rotation at 110 rpm. The DMSO (1%) and […] media were used as positive and negative controls, respectively. Following incubation, MIC of SMs in challenged plate was recorded. The SMs exposed pegs were then transferred to a new 96-well plate containing PBS and sonicated for 30 mins (Aquasonic ultrasonic cleaner, VWR) to disrupt the biofilm. The sonicated suspensions were ten-fold serially diluted and plated on LB agar plate. Biofilm embedded APEC bacteria were enumerated and minimum biofilm eradication concentration (MBEC) of SMs were determined as described previously. Two independent experiments were conducted.

APEC O1 = experiment: MIC and MBC determination in M63 media; type: cell-based; conditions: Escherichia coli
APEC O78 [5] = experiment: Scanning electron microscopy; type: cell-based, Escherichia coli; conditions: 2X MBC
Protocol: The SMs treated APEC O78 cultures prepared above were also processed for scanning electron microscopy (SEM) as described previously. […] Briefly, one volume of bacterial culture was mixed with one volume of fixative (3% glutaraldehyde, 1% paraformaldehyde in 0.1 M potassium phosphate buffer, pH 7.2), and incubated at 4 °C overnight. The fixed bacterial cells were then centrifuged for 5 mins at 1,200 × g, washed twice with PBS, and resuspended in 1% osmium tetroxide for 1 h at room temperature in the dark, followed by serial dehydration of the sample in ethanol and platinum splatter-coating. Visualization and imaging of the sample was performed using a Hitachi S-4700 scanning electron microscope.

[6] = tested on: E. coli Nissle 1917 and E. coli G58-1; experiment: Effect against beneficial microbes; type: cell-based, Escherichia coli; conditions: 100 µM
Protocol: SMs were screened against different beneficial microbes to determine their specificity as described previously. SMs were added at 100 µM to 100 µL of 0.05 OD600 adjusted bacterial cultures in specific growth media in 96-well plate, and plate was incubated under indicated conditions. The specific growth media and conditions required for beneficial microbes limited the use of minimal media. Following incubation, endpoint OD600 was measured and cultures from the wells with non-elevated OD600 were plated on selective agar plates to determine the bactericidal effect.

SMILES | MBC (APEC O18) | MIC (APEC O18) | MBC (APEC O1-63) | MIC (APEC O1-63) | MBC (APEC O115) | MIC (APEC O115) | cytological profile (FM4-64 / SYTO-9 staining) (APEC O78 [1]) | MBC (APEC O15) | MIC (APEC O15) | bactericidal activity against STEC strains [3] | MBC (APEC O8) | MIC (APEC O8) | MBC (APEC O2-211) | MIC (APEC O2-211) | MBC (APEC O2) | MIC (APEC O2) | MBEC as multiple of MIC (superscript) [4] | MBEC as multiple of MIC [4] | MBC (APEC O1) | MIC (APEC O1) | further results
CC1CCCN(CCC(=O)c2ccc(Br)cc2)C1 (centres unmarked) [SM1] | 200 µM (≈ 62 µg/mL) | 200 µM (≈ 62 µg/mL) | 250 µM (≈ 77.6 µg/mL) | 200 µM (≈ 62 µg/mL) | 200 µM (≈ 62 µg/mL) | 200 µM (≈ 62 µg/mL) | filamentous or short rods (spheroplasts) morphology (PG synthesis inhibitors) | 250 µM (≈ 77.6 µg/mL) | 200 µM (≈ 62 µg/mL) | not cidal | 200 µM (≈ 62 µg/mL) | 200 µM (≈ 62 µg/mL) | 200 µM (≈ 62 µg/mL) | 200 µM (≈ 62 µg/mL) | 200 µM (≈ 62 µg/mL) | 200 µM (≈ 62 µg/mL) | d (4X MIC) | 4 X MIC | 250 µM (≈ 77.6 µg/mL) | 200 µM (≈ 62 µg/mL) | bactericidal effect in primary screening (APEC O78 [2]): bactericidal
COc1cc(CNCCc2ccc(C)cc2)ccc1OCC(O)CN1CCCC1 (centres unmarked) [SM3] | 100 µM (≈ 39.9 µg/mL) | 100 µM (≈ 39.9 µg/mL) | 200 µM (≈ 79.7 µg/mL) | 200 µM (≈ 79.7 µg/mL) | 100 µM (≈ 39.9 µg/mL) | 100 µM (≈ 39.9 µg/mL) | bright red foci at random positions throughout the cell indicating membrane defects (membrane pore formers) | 100 µM (≈ 39.9 µg/mL) | 100 µM (≈ 39.9 µg/mL) | – | 100 µM (≈ 39.9 µg/mL) | 100 µM (≈ 39.9 µg/mL) | 100 µM (≈ 39.9 µg/mL) | 100 µM (≈ 39.9 µg/mL) | 200 µM (≈ 79.7 µg/mL) | 100 µM (≈ 39.9 µg/mL) | b (1X MIC) | – | 200 µM (≈ 79.7 µg/mL) | 100 µM (≈ 39.9 µg/mL) | cell morphology in SEM (APEC O78 [5]): blebbing and pore at single cell pole, respectively
CC1CCC(C(C)C)C(OC(=O)Cn2c[n+](CC(=O)OC3CC(C)CCC3C(C)C)c3ccccc32)C1 (centres unmarked) [SM4] | 50 µM | 25 µM | 50 µM | 25 µM | 25 µM | 25 µM | absence of FM4-64 stained membrane (membrane disruptors) | 25 µM | 25 µM | – | 25 µM | 25 µM | 25 µM | 25 µM | 50 µM | 25 µM | a (0.5X MIC) | – | 50 µM | 25 µM | cell morphology in SEM (APEC O78 [5]): severe wrinkling and multiple blebbing throughout the cells (membrane disruptors)
CC(=O)OC(C(Br)C(=O)c1ccc([N+](=O)[O-])cc1)C(Cl)(Cl)Cl (centres unmarked) [SM10] | 100 µM (≈ 43.3 µg/mL) | 25 µM (≈ 10.8 µg/mL) | 100 µM (≈ 43.3 µg/mL) | 50 µM (≈ 21.7 µg/mL) | 50 µM (≈ 21.7 µg/mL) | 25 µM (≈ 10.8 µg/mL) | filamentous or short rods (spheroplasts) morphology (PG synthesis inhibitors) | 100 µM (≈ 43.3 µg/mL) | 50 µM (≈ 21.7 µg/mL) | – | 50 µM (≈ 21.7 µg/mL) | 50 µM (≈ 21.7 µg/mL) | 50 µM (≈ 21.7 µg/mL) | 25 µM (≈ 10.8 µg/mL) | 50 µM (≈ 21.7 µg/mL) | 25 µM (≈ 10.8 µg/mL) | – | > 8 X MIC | 25 µM (≈ 10.8 µg/mL) | 25 µM (≈ 10.8 µg/mL) | effect on E. coli Nissle 1917 and E. coli G58-1 [6]: did not have effect; cell morphology in SEM (APEC O78 [5]): shortened cells (~0.5 µM) and blebbing at both cell poles; concentration that significantly (P < 0.01) reduced biofilm embedded APEC ([4]; no eradication): 1 X MIC
COc1cc(CNCCc2ccc3ccccc3c2)ccc1OCC(O)CN1CCCC1 (centres unmarked) [SM2] | 200 µM (≈ 86.9 µg/mL) | 100 µM (≈ 43.5 µg/mL) | 250 µM (≈ 109 µg/mL) | 200 µM (≈ 86.9 µg/mL) | 200 µM (≈ 86.9 µg/mL) | 200 µM (≈ 86.9 µg/mL) | bright red foci at random positions throughout the cell indicating membrane defects (membrane pore formers) | 100 µM (≈ 43.5 µg/mL) | 100 µM (≈ 43.5 µg/mL) | not cidal | 200 µM (≈ 86.9 µg/mL) | 100 µM (≈ 43.5 µg/mL) | 100 µM (≈ 43.5 µg/mL) | 100 µM (≈ 43.5 µg/mL) | 250 µM (≈ 109 µg/mL) | 200 µM (≈ 86.9 µg/mL) | b (1X MIC) | – | 250 µM (≈ 109 µg/mL) | 200 µM (≈ 86.9 µg/mL) | –
COc1ccc(CCN(Cc2cc3c(cc2Cl)OCO3)CC2CCN(C)CC2)cc1 [SM11] | 200 µM (≈ 86.2 µg/mL) | 200 µM (≈ 86.2 µg/mL) | 200 µM (≈ 86.2 µg/mL) | 100 µM (≈ 43.1 µg/mL) | 200 µM (≈ 86.2 µg/mL) | 200 µM (≈ 86.2 µg/mL) | bright red foci at random positions throughout the cell indicating membrane defects (membrane pore formers) | 100 µM (≈ 43.1 µg/mL) | 100 µM (≈ 43.1 µg/mL) | not cidal | 200 µM (≈ 86.2 µg/mL) | 200 µM (≈ 86.2 µg/mL) | 100 µM (≈ 43.1 µg/mL) | 100 µM (≈ 43.1 µg/mL) | 200 µM (≈ 86.2 µg/mL) | 100 µM (≈ 43.1 µg/mL) | d (4X MIC) | 4 X MIC | 100 µM (≈ 43.1 µg/mL) | 100 µM (≈ 43.1 µg/mL) | –
